17 compounds from patent publication EP2530078A1, “THIAZOLE DERIVATIVE” (Takeda Pharmaceutical Company Limited, priority 2010, dated 2011) can be followed below.

Structures can show the parent of a compound that is named as a salt.

For assay [1], the target named is T1, human GPR52 (Homo sapiens, UniProt Q9Y2T5).
T1 construct: expressed in transfected cells; host or cells: CHO(dhfr-) cells
Briefly: Increase of intracellular cAMP concentration in human GPR52-expressing CHO cell (AlphaScreen cAMP assay). It counts as cell-based. The following applies: test compound 10 µm, 37°C, 30 min, human GPR52-expressing CHO(dhfr-) cells, 100% = cAMP with 1 µM N-(2-hydroxyethyl)-3-[2-[3-(trifluoromethyl)benzyl]-1-benzofuran-4-yl]benzamide, 0% = DMSO; for activation at 10 µM: 0.5 h, read-out: GPR52 agonist activity (%). The method, then: Increase of intracellular cAMP concentration in human GPR52-expressing CHO cell
Using OptiPlate-384 (PerkinElmer Inc.), 1×10^4 human GPR52-expressing CHO(dhfr-) cells were incubated together with a test compound ([…]) in an assay buffer (30 µL, HBSS (containing Ca^2+ and Mg^2+), 0.5% BSA, 100 µM IBMX, 100 µM Ro20-1724, 5 mM HEPES (pH 7.55)) at 37°C for 30 min. Thereafter, according to the protocol of AlphaScreen cAMP Assay Kit (PerkinElmer Inc.), the intracellular cAMP concentration was measured by EnVision (PerkinElmer Inc.). The GPR52 agonist activity was calculated, assuming the intracellular cAMP concentration in the presence of 1 µM N-(2-hydroxyethyl)-3-[2-[3-(trifluoromethyl)benzyl]-1-benzofuran-4-yl]benzamide to be 100% and assuming the intracellular cAMP concentration when DMSO was added instead of the test compound to be 0%.
A general note: In Alpha technology, singlet oxygen from a donor bead excites a nearby acceptor bead.

For assay [2], the system named is methamphetamine-induced locomotor hyperactivity in mice. Briefly: Inhibition test of methamphetamine-induced locomotor hyperactivity. Format: in vivo. The following applies: male ICR mice, test compound 30 mg/kg body weight orally, methamphetamine 2 mg/kg body weight subcutaneously 60 min later; relative to vehicle treatment group. The method, then:
Inhibition test of methamphetamine-induced locomotor hyperactivity
The compound of the present invention can be evaluated by assessing its capacity to inhibit methamphetamine-induced locomotor hyperactivity in mice. The method of Okuyama et al (Life Science, Vol. 65, p. 2109-2125 (1999)) was modified and used for testing the inhibition of methamphetamine-induced locomotor hyperactivity.
Locomotor activity was measured using a 32-channel locomotor activity measurement device MDC-LT (BrainScience Idea Co., Ltd.), which emits infrared beams from the top of a cage (30 cm x 40 cm x 20 cm). 6- to 8-Week-old male ICR mice were acclimated for at least 45 min in the measurement cages, and then either test compound (30 mg/kg body weight) dissolved in vehicle (0.5% aqueous methylcellulose solution) or the vehicle alone was orally administered to the laboratory animals. This oral administration was followed 60 min later by subcutaneous administration of methamphetamine (2 mg/kg body weight).
The number of times the laboratory animals passed through the infrared beams emitted inside the measurement cages in 150 min after administration of the test compound or vehicle was counted to quantify locomotor activity. The methamphetamine-induced locomotor hyperactivity inhibition rate (activity inhibition rate (%)) was calculated by the following equation. Activityinhibitionrate(%) = {1-(locomotoractivityoftestcompoundtreatmentgroupaftertreatmentwithmethamphetamine÷locomotoractivityofvehicletreatmentgroupaftertreatmentwithmethamphetamine)}x100 [formula]

T1 sequence (Q9Y2T5 whole entry): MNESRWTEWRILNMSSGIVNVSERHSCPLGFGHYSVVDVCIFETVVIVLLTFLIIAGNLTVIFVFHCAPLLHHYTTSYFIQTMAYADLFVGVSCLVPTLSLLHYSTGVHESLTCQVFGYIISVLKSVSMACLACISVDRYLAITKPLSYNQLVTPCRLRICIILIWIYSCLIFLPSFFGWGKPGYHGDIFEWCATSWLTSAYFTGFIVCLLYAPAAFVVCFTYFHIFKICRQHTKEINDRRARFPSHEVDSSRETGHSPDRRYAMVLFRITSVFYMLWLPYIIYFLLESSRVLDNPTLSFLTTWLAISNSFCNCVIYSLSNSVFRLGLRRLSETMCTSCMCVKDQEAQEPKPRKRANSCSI

As for `Cc1nc(Cc2cccc(C(F)(F)F)c2)sc1NC(=O)c1ccnn1C` [Example 3, 1-methyl-N-{4-methyl-2-[3-(trifluoromethyl)benzyl]-1,3-thiazol-5-yl}-1H-pyrazole-5-carboxamide], in assay [1], the “GPR52 agonist activity (%)” value is 81%. Further, in assay [2], the “motor activity suppression rate (%)” value stood at 32%.
As to `Cc1nc(Cc2cc(F)cc(Cl)c2)sc1NC(=O)c1ccnn1C` [Example 145, N-[2-(3-chloro-5-fluorobenzyl)-4-methyl-1,3-thiazol-5-yl]-1-methyl-1H-pyrazole-5-carboxamide], in assay [1], the activation at 10 µM is 95%. Besides, the “motor activity suppression rate (%)” value in assay [2] turned out to be 47%.
For `Cc1nn(C)cc1C(=O)Nc1sc(Cc2cc(F)cc(Cl)c2)nc1C` [Example 146, N-[2-(3-chloro-5-fluorobenzyl)-4-methyl-1,3-thiazol-5-yl]-1,3-dimethyl-1H-pyrazole-4-carboxamide], the activation at 10 µM in assay [1] came out at 84%. Besides, the “motor activity suppression rate (%)” value in assay [2] was 42%.
Taken in the same sequence, the figures for `CCn1nccc1C(=O)Nc1sc(Cc2cc(F)cc(Cl)c2)nc1C` [Example 148, N-[2-(3-chloro-5-fluorobenzyl)-4-methyl-1,3-thiazol-5-yl]-1-ethyl-1H-pyrazole-5-carboxamide] were 76% and 67%.
With `CCCn1nccc1C(=O)Nc1sc(Cc2cc(F)cc(Cl)c2)nc1C` [Example 153, N-[2-(3-chloro-5-fluorobenzyl)-4-methyl-1,3-thiazol-5-yl]-1-propyl-1H-pyrazole-5-carboxamide], the activation at 10 µM in assay [1] stood at 72%. Moreover, the “motor activity suppression rate (%)” value in assay [2] is on record as 39%.
For `Cc1nc(Cc2cc(F)cc(Cl)c2)sc1NC(=O)c1cc(CC#N)nn1C` [Example 230, N-[2-(3-chloro-5-fluorobenzyl)-4-methyl-1,3-thiazol-5-yl]-3-(cyanomethyl)-1-methyl-1H-pyrazole-5-carboxamide], the activation at 10 µM in assay [1] was 71%.
Take `Cc1nc(Cc2cccc(S(C)(=O)=O)c2)sc1NC(=O)c1ccnn1C` [Example 233, 1-methyl-N-{4-methyl-2-[3-(methylsulfonyl)benzyl]-1,3-thiazol-5-yl}-1H-pyrazole-5-carboxamide]: in assay [1], the activation at 10 µM was found to be 81%.
As to `Cc1nc(Cc2cc(F)cc(Cl)c2)sc1NC(=O)c1ccnn1CC(N)=O` [Example 234, 1-(carbamoylmethyl)-N-[2-(3-chloro-5-fluorobenzyl)-4-methyl-1,3-thiazol-5-yl]-1H-pyrazole-5-carboxamide], in assay [1], the activation at 10 µM is 78%.
On the same count and under the same terms, for `COc1cc(C(=O)Nc2sc(Cc3cc(F)cc(Cl)c3)nc2C)n(C)n1` [Example 235, N-[2-(3-chloro-5-fluorobenzyl)-4-methyl-1,3-thiazol-5-yl]-3-methoxy-1-methyl-1H-pyrazole-5-carboxamide] the value was 79%; for `Cc1nc(Cc2cc(F)cc(Cl)c2)sc1NC(=O)c1cc(CN2CCOCC2)nn1C` [Example 238, N-[2-(3-chloro-5-fluorobenzyl)-4-methyl-1,3-thiazol-5-yl]-1-methyl-3-(morpholinomethyl)-1H-pyrazole-5-carboxamide monohydrochloride], 80%; for `Cc1nc(Cc2cc(F)cc(Cl)c2)sc1NC(=O)c1cc(CS(C)(=O)=O)nn1C` [Example 242, N-[2-(3-chloro-5-fluorobenzyl)-4-methyl-1,3-thiazol-5-yl]-1-methyl-3-[(methylsulfonyl)methyl]-1H-pyrazole-5-carboxamide], 76%.
Still for that read-out and setting: the figure for `Cc1nc(Cc2cc(F)cc(Cl)c2)sc1NC(=O)c1cc(Cn2ccnc2)nn1C` [Example 243, N-[2-(3-chloro-5-fluorobenzyl)-4-methyl-1,3-thiazol-5-yl]-3-[(1H-imidazol-1-yl)methyl]-1-methyl-1H-pyrazole-5-carboxamide] is 77%; for `Cc1nc(Cc2cc(F)cc(Cl)c2)sc1NC(=O)c1cc(S(C)(=O)=O)nn1C` [Example 246, N-[2-(3-chloro-5-fluorobenzyl)-4-methyl-1,3-thiazol-5-yl]-1-methyl-3-(methylsulfonyl)-1H-pyrazole-5-carboxamide] it is 70%; for `Cc1nc(Cc2cc(F)cc(Cl)c2)sc1NC(=O)c1cc([S+](C)[O-])nn1C` (stereo not shown) [Example 247, N-[2-(3-chloro-5-fluorobenzyl)-4-methyl-1,3-thiazol-5-yl]-1-methyl-3-(methylsulfinyl)-1H-pyrazole-5-carboxamide] it is 69%.
Consider `Cc1nc(Cc2cc(F)cc(C3CC3)c2)sc1NC(=O)c1ccnn1C` [Example 249, N-[2-(3-cyclopropyl-5-fluorobenzyl)-4-methyl-1,3-thiazol-5-yl]-1-methyl-1H-pyrazole-5-carboxamide], for which the activation at 10 µM in assay [1] is 99%.
As to `Cc1nc(Cc2cc(F)cc(Cl)c2)sc1NC(=O)Cn1cnnn1` [Example 252, N-[2-(3-chloro-5-fluorobenzyl)-4-methyl-1,3-thiazol-5-yl]-2-(1H-tetrazol-1-yl)acetamide], the activation at 10 µM in assay [1] amounted to 72%.
Turning to “N^4-[2-(3-chloro-5-fluorobenzyl)-4-methyl-1,3-thiazol-5-yl]piperidine-1,4-dicarboxamide [Example 254]”, the “GPR52 agonist activity (%)” value in assay [1] stood at 77%.
